“Also recorded” adds a separate entry of the source.
Legend:
[1] = system: Human retinal microvascular endothelial cells (HRMECs); assay: LPS-activated microglia-induced HRMEC tube formation (co-culture); assay type: cell-based; settings: 10 μM; normalised to vehicle 0%, sulforaphane 100%
Experimental: The following experimental groups were included in the study: • Group 1: […] Sulforaphane (10 μM, positive control, anti-angiogenic effects) • Group 3: Aflibercept (“Eylea” 40 μg/ml, positive control, partial anti-angiogenic effects) • Group 4: […] Human retinal microvascular endothelial cells (HRMECs) were purchased from Neuromics (Cat #HEC09, Lot #2872) and cultured according to manufacturer's instructions in Endo-Growth media (Cat #EKG001, Lot #EKG0011902269) supplemented with Endothelial Growth Factor (Cat #EKG001, Lot #EGK00125) on AlphaBiocoat coated T25 flasks at 37° C. 5% CO2. […] Human microglia were seeded onto PLL coated cell culture inserts (Sarstedt, Cat #83.3932.040) at 103 000 cells/cm^2. […] The method for co-cultures of microglia and HRMECs was modified from protocol described by Ding et al. 2018 (Ding X, Gu R, Zhang M, Ren H, Shu Q, Xu G, Wu H. Microglia enhanced the angiogenesis, migration and proliferation of co-cultured RMECs. […] PMID: 30223824; PMCID: PMC6142340) and Ji Cho et al. 2019 (Ji Cho M, Yoon […], Park J, Lee J, Park J G, Cho Y L, Hun Kim J, Jang H, Park Y J, Lee S H, Min J K. Oxidative stress-mediated TXNIP loss causes RPE dysfunction. […] PMID: 31615975; PMCID: PMC6802648). Microglia was activated with LPS (100 ng/ml) in microglia complete growth media without FBS with simultaneous treatment of freshly prepared study compounds, Eylea and vehicle for 24 hours. HRMECs were incubated in basal Endo-Growth media for 24 hours before co-culturing. […] Media in microglia inserts containing LPS was replaced to corresponding freshly prepared study compounds, aflibercept and sulforaphane in basal Endo-Growth media. […] 5% CO2, stained with calcein-AM (5 μM) for 30 min and imaged using a fluorescence microscope (Leica Thunder 3D Tissue Imager, Leica Microsystems). Images were analyzed using the AngioTool software (Zudaire E, Gambardella L, Kurcz […] Computational Tool for Quantitative Analysis of Vascular Networks. PLOS ONE 6(11): e27385. https://doi.org/10.1371/journal.pone.0027385) for ImageJ (NIH public domain). Total tube area, tube length, density, lacunarity, and branching index (number of junctions and endpoints) were quantified. Images were analyzed using AngioTool software (NIH, Bethesda, MD; available in the public domain) for the following readouts: average vessels length, total vessels length, vessel area, vessels percentage area, total number of junctions, density of junctions, total number of endpoints, and mean lacunarity. […] Raw data for each of the readouts was plotted and analyzed by ordinary one-way ANOVA with Dunnett's multiple comparisons post-hoc test. […] Effect size data were analyzed by non-parametric Kruskal-Wallis test, with Dunn's multiple comparisons post-hoc test.

[2] = system: VEGF induced corneal vascularisation; assay: VEGF induced corneal vascularisation (pellet in corneal pocket), area of neovascularisation; assay type: in vivo, C57BL/6 mice; set-up: Area of vasc.: unit not given beside the values
Experimental: (§1) The area of the neovascularisation can be measured using the formula: Area=0.2·VL·CH·π wherein vessel length (VL) and continuous circumferential zone (in clock hours=CH) are measured as defined in FIG. 1. Treatment with Laquinimod of VEGF Induced Corneal Vascularisation
Hydron pellets for induction of vascularisation were prepared from stimulant (VEGF) and binding agent (sucralfate).
53 CR female C57BL/6 mice aged 6 to 8 weeks were prepared for surgery by anesthetising with 90 mg/kg of pentobarbital, ip. Corneal vascularisation was induced by placement of a pellet in a corneal pocket cut in one eye. Signs for ocular irritation or infection were carefully monitored.
[…] Vascularisation was measured on day 8.

[3] = system: bFGF induced corneal vascularisation; assay: bFGF induced corneal vascularisation (pellet in corneal pocket), area of neovascularisation; assay type: in vivo, C57BL/6 mice
Experimental: as §1
Hydron pellets for induction of vascularisation were prepared from stimulant (bFGF) and binding agent (sucralfate).
47 CR female C57BL/6 mice aged 6 to 8 weeks were prepared for surgery by anesthetising with 90 mg/kg of pentobarbital, ip. Corneal vascularisation was induced by placement of a pellet in a corneal pocket cut in one eye. Signs for ocular irritation or infection were carefully monitored.
Dosages of laquinimod in DI (deionised) water, vehicle (DDW=double distilled water), and avastin (positive control) were applied directly to the eye containing the pellet. Vascularisation was measured on day 6.

[4] = system: Human retinal microvascular endothelial cells (HRMECs); assay: Tube formation assay, combination with aflibercept (contemplated); assay type: cell-based; settings: 1 and 10 μM combined with Aflibercept (30 nM)
Description: Microglia, especially activated microglia play important roles in angiogenesis and maintenance of vascular function haemostasis in the retinal microvasculature (Ding et al 2018). It is contemplated that a co-culture of human retinal microvasculature endothelial cells (HRMEC's) and human microglia from brain can be used to assess the effects of a compound of the disclosure, such as laquinimod, tasquinimod, ABR-215174 or ABR-215691, on neovascularization. A method such as the one outlined below may be used.
This study may be carried out substantially as outlined in Example 3.
Tube formation assay is performed using 24-well plate wells coated with Matrigel or in 96-wells as described Ding et al. 2018 (Ding et al. BMC Ophthalmology (2018) 18:249): A 96-well plate is coated with 50 μL/well Matrigel at 37° C. for 30 min. After co-culturing with microglia for 24 h, HRMECs are seeded on the Matrigel at 1.5×10^4 cells/well in 100 μL medium. After a period of time, for example 4 h, tube formation is observed and photographed with a microscope (Leica Microsystems). Images are analysed using the Angiotool plugin (Zudaire et al., 2011, PLoS one, 6, 11, e27385) for ImageJ (NIH public domain). Total tube area, tube length, density, lacunarity, and branching index (number of junctions and endpoints) are quantified.

relapsing MS patients = settings: clinical development program; cited from earlier work
[5] = group 4: 10 μg/animal topical bid ×7, measured day 8
[6] = group 5: 50 μg/animal topical bid ×7, measured day 8
[7] = group 6: 10 μg/animal topical qid ×7, measured day 8
[8] = group 7: 50 μg/animal topical qid ×7, measured day 8
[9] = group 5: 50 μg/animal topical bid ×5, measured day 6

## CCN(C(=O)c1c(O)c2c(Cl)cccc2n(C)c1=O)c1ccccc1 [laquinimod]
[1]
  Normalized effect size on average vessel length: 53%
[2]; 0.5 mg/kg bid, group 4
  Inhibition of corneal vascularisation induced by VEGF: did not provide for any inhibition; also recorded: no inhibition
[2]; 0.5 mg/kg qid, group 6
  Inhibition of corneal vascularisation induced by VEGF: 8%
[2]; 2.5 mg/kg bid, group 5
  Inhibition of corneal vascularisation induced by VEGF: 46%
[2]; 2.5 mg/kg qid, group 7
  Inhibition of corneal vascularisation induced by VEGF: 50%
[2]; [5]
  Area of vasc.: 1.49 ± 0.13
  Area percent of positive control: 101%
[2]; [6]
  Area of vasc.: 0.79 ± 0.06
  Area percent of positive control: 54%
[2]; [7]
  Area of vasc.: 1.35 ± 0.09
  Area percent of positive control: 92%
[2]; [8]
  Area of vasc.: 0.74 ± 0.11
  Area percent of positive control: 50%
[3]; 0.5 mg/kg bid, group 4
  Inhibition of corneal vascularisation induced by bFGF: 11%
[3]; 2.5 mg/kg bid, group 5
  Inhibition of corneal vascularisation induced by bFGF: 35%
[3]; 2.5 mg/kg qid, group 7
  Inhibition of corneal vascularisation induced by bFGF: 56%
[3]; [9]
  Area of vasc.: 2.30 ± 0.23
  Area percent of positive control: 65%
[3]; group 7: 50 μg/animal topical qid ×5, measured day 6
  Area of vasc.: 1.56 ± 0.15
[4]
  effect on tube formation of combination compared to each compound used as monotherapy: clear additive effect
Relapsing MS patients
  annual relapse rate: consistent clinical benefit
